Assay results reported in patent publication US20110098283A1, “3-CINNOLINECARBOXAMIDE DERIVATIVES AND THEIR USE FOR TREATING CANCER” (ASTRAZENECA AB, priority 2007, published 2011).

Columns and labels:
[1] = biological target: T1, CSF-1R (His-tagged kinase domain, amino acids 568-912) (Homo sapiens, UniProt P07333); assay: Assay 2: CSF1R in-vitro AlphaScreen Assay; format: biochemical; settings: phosphorylation of pEY substrate; 0.46 nM CSF-1R, 12 mM ATP in mix
T1 construct: The His-tagged kinase domain of CSF-1R (i.e., amino acids 568-912, GeneBank ID NM_005211); His; made in house; host or cells: baculovirus infected SF+Express insect cells
T1 sequence (P07333 568-912): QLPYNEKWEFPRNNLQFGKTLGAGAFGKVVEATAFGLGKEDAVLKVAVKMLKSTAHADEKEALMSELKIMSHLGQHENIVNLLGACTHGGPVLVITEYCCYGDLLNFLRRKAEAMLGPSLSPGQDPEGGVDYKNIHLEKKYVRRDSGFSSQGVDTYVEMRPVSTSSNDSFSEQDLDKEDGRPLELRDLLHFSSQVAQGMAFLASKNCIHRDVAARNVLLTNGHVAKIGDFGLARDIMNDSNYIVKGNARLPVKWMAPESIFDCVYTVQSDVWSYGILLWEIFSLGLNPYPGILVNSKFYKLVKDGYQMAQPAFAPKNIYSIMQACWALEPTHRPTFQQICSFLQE
Description: Assay 2: CSF1R in-vitro AlphaScreen Assay
Activity of purified CSF-1R was determined in-vitro using an Amplified Luminescent Proximity Homogeneous Assay (ALPHA) (Perkin Elmer, Mass.), which measures phosphorylation of CSF-1R substrate, biotinylated poly-glutamine-tyrosine peptide (pEY-HTRF CisBio 61GT0BLD), as described below. The His-tagged kinase domain of CSF-1R (i e, amino acids 568-912, GeneBank ID NM_005211) was purified from baculovirus infected SF+Express insect cells (1.4×10^6 cells/ml), French pressed and chromatographed through subsequent QIAgen Ni-NTA, Superflow Mono Q HR 10/10, and Superdex 200 SEC columns.
The phosphorylation of the CSF-1R substrate in the presence and absence of the compound of interest was determined. Briefly, 5 ul of Enzyme/Substrate/adenosine triphosphate (ATP) mix consisting of 0.46 nM of purified CSF-1R, 12 nM pEY substrate, and 12 mM ATP in 1.2× buffer was preincubated with 2 ul of compound for 20 minutes at 25° C. Reactions were initiated with 5 ul of Metal mix consisting of 24 mM MgCl2 in 1.2× buffer and incubated at 25° C. for 90 minutes and reactions were stopped by addition of 5 ul of Detection mix consisting of 20 mM HEPES, 102 mM ethylenediamine tetraacetic acid, 1.65 mg/ml BSA, 136 mM NaCl, 40 ug/ml Streptavidin donor beads (Perkin Elmer, Mass., Catalog #6760002), and 40 ug/ml phosphotyrosine-specific antibody coated acceptor beads (Perkin Elmer, Mass., Catalog #6760620). Plates were incubated at 25° C. for 18 hours in the dark. Phosphorylated substrate was detected by an EnVision plate reader (Perkin Elmer) 680 nm excitation, 520-620 nm emission. Data was graphed and IC50s calculated using Excel Fit (Microsoft).

[2] = biological target: T1, CSF-1R (His-tagged kinase domain, amino acids 568-912); assay: Assay 1: CSF-1R in vitro AlphaScreen Assay; format: biochemical; settings: phosphorylation of pEY substrate; 0.57 nM CSF-1R, 90 μM ATP
Description: Assay 1: CSF-1R in vitro AlphaScreen Assay
Activity of purified CSF-1R was determined in vitro using an Amplified Luminescent Proximity Homogeneous Assay (ALPHA) (Perkin Elmer), which measures phosphorylation of the CSF-1R substrate, biotinylated poly-glutamine-tyrosine peptide (pEY-HTRF CisBio 61GT0BLD), as described below.
The phosphorylation of the CSF-1R substrate in the presence and absence of the compound of interest was determined. […] Plates were incubated at 25° C. for 18 hours in the dark. Phosphorylated substrate was detected by an EnVision plate reader (Perkin Elmer) 680 nm excitation, 520-620 nm emission. Data was graphed and IC50s calculated using Excel Fit (Microsoft).

SMILES	IC50 [1] [nM]	IC50 [2] [nM]
CCOc1cc2nnc(C(N)=O)c(Nc3cccc(Cl)c3Cl)c2cc1N1CCN(C)CC1 [Example 8, 4-[(2,3-Dichlorophenyl)amino]-7-ethoxy-6-(4-methylpiperazin-1-yl)cinnoline-3-carboxamide]	–	3
COCCOc1cc2nnc(C(N)=O)c(Nc3ccc(F)cc3F)c2cc1N1CCN(C(C)C)CC1 [Example 24, 4-[(2,4-Difluorophenyl)amino]-6-(4-isopropylpiperazin-1-yl)-7-(2-methoxyethoxy)cinnoline-3-carboxamide]	–	< 3
CCOc1cc2nnc(C(N)=O)c(Nc3ccc(C)cc3F)c2cc1N1CCCN(C)CC1 [Example 27, 7-Ethoxy-4-[(2-fluoro-4-methylphenyl)amino]-6-(4-methyl-1,4-diazepan-1-yl)cinnoline-3-carboxamide]	–	< 3
COc1cc2nnc(C(N)=O)c(Nc3cccc(Cl)c3Cl)c2cc1OC [Example 5, 4-[(2,3-Dichlorophenyl)amino]-6,7-dimethoxycinnoline-3-carboxamide]	–	< 3
COc1cc2nnc(C(N)=O)c(Nc3ccc(F)cc3F)c2cc1N1CCN(C)CC1 [Example 20, 4-[(2,4-Difluorophenyl)amino]-7-methoxy-6-(4-methylpiperazin-1-yl)cinnoline-3-carboxamide]	–	< 3
COc1cc2nnc(C(N)=O)c(Nc3cccc(Cl)c3F)c2cc1N1CCN(C)CC1 [Example 14, 4-[(3-Chloro-2-fluorophenyl)amino]-7-methoxy-6-(4-methylpiperazin-1-yl)cinnoline-3-carboxamide]	–	< 3
COc1cc2nnc(C(N)=O)c(Nc3cc(C)ccc3F)c2cc1N1CCN(C(C)C)CC1 [Example 23, 4-[(2-Fluoro-5-methylphenyl)amino]-6-(4-isopropylpiperazin-1-yl)-7-methoxycinnoline-3-carboxamide]	–	< 5
CCOc1cc2nnc(C(N)=O)c(Nc3ccc(C)cc3F)c2cc1N1CCN(C(C)C)CC1 [Example 25, 7-Ethoxy-4-[(2-fluoro-4-methylphenyl)amino]-6-(4-isopropylpiperazin-1-yl)cinnoline-3-carboxamide]	–	< 3
COc1cc2nnc(C(N)=O)c(Nc3ccc(C)cc3F)c2cc1C1CCN(S(C)(=O)=O)CC1 [Example 50, 4-[(2-Fluoro-4-methylphenyl)amino]-7-methoxy-6-[1-(methylsulfonyl)piperidin-4-yl]cinnoline-3-carboxamide]	33	–
COc1cc2nnc(C(N)=O)c(Nc3cccc(Cl)c3F)c2cc1N1C[C@@H](C)N[C@@H](C)C1 [Example 45, 4-[(3-Chloro-2-fluorophenyl)amino]-6-[(3R,5S)-3,5-dimethylpiperazin-1-yl]-7-methoxycinnoline-3-carboxamide]	6	–
CCOc1cc2nnc(C(N)=O)c(Nc3ccc(C)cc3F)c2cc1N1CCN(C)CC1 [Example 10, 7-Ethoxy-4-[(2-fluoro-4-methyl-phenyl)amino]-6-(4-methylpiperazin-1-yl)cinnoline-3-carboxamide]	–	< 3
COc1cc2nnc(C(N)=O)c(Nc3cc(C)ccc3F)c2cc1N1CCN(C)CC1 [Example 22, 4-[(2-Fluoro-5-methylphenyl)amino]-7-methoxy-6-(4-methylpiperazin-1-yl)cinnoline-3-carboxamide]	–	< 3
CCOc1cc2nnc(C(N)=O)c(Nc3ccc(C)cc3F)c2cc1N1C[C@@H](C)N[C@@H](C)C1 [Example 28, 6-[(3R,5S)-3,5-Dimethylpiperazin-1-yl]-7-ethoxy-4-[(2-fluoro-4-methylphenyl)amino]cinnoline-3-carboxamide]	–	< 3
CCOc1cc2nnc(C(N)=O)c(Nc3cc(C)ccc3F)c2cc1N1CCN(C)CC1 [Example 6, 7-Ethoxy-4-[(2-fluoro-5-methylphenyl)amino]-6-(4-methylpiperazin-1-yl)cinnoline-3-carboxamide]	–	< 3
CCOc1cc2nnc(C(N)=O)c(Nc3ccc(F)cc3F)c2cc1N1CCN(C(C)C)CC1 [Example 11, 4-[(2,4-Difluorophenyl)amino]-7-ethoxy-6-(4-propan-2-ylpiperazin-1-yl)cinnoline-3-carboxamide]	–	8
COc1cc2nnc(C(N)=O)c(Nc3ccc(C)cc3F)c2cc1-c1ccncc1 [Example 26, 4-[(2-Fluoro-4-methylphenyl)amino]-7-methoxy-6-pyridin-4-ylcinnoline-3-carboxamide]	–	51

Next, values leading:

IC50 [1] [nM]	IC50 [2] [nM]	SMILES
< 3	–	COc1cc2nnc(C(N)=O)c(Nc3ccc(C)cc3F)c2cc1N1C[C@@H](C)N[C@@H](C)C1 [Example 36, 6-[(3R,5S)-3,5-Dimethylpiperazin-1-yl]-4-[(2-fluoro-4-methylphenyl)amino]-7-methoxycinnoline-3-carboxamide]
–	5	CCOc1cc2nnc(C(N)=O)c(Nc3ccc(F)cc3F)c2cc1N1CCN(CC)CC1 [Example 12, 4-[(2,4-Difluorophenyl)amino]-7-ethoxy-6-(4-ethylpiperazin-1-yl)cinnoline-3-carboxamide]
–	< 3	COCCOc1cc2nnc(C(N)=O)c(Nc3cccc(Cl)c3F)c2cc1N1CCN(C)CC1 [Example 21, 4-[(3-Chloro-2-fluorophenyl)amino]-7-(2-methoxyethoxy)-6-(4-methylpiperazin-1-yl)cinnoline-3-carboxamide]
–	5	COc1cc2nnc(C(N)=O)c(Nc3cc(C)ccc3F)c2cc1OC [Example 4, 4-[(2-Fluoro-5-methylphenyl)amino]-6,7-dimethoxycinnoline-3-carboxamide]
–	< 3	COc1cc2nnc(C(N)=O)c(Nc3ccc(F)cc3F)c2cc1OC [Example 1, 4-[(2,4-Difluorophenyl)amino]-6,7-dimethoxycinnoline-3-carboxamide]
–	8	COc1cc2nnc(C(N)=O)c(Nc3ccc(C)cc3F)c2cc1OC [Example 2, 4-[(2-Fluoro-4-methylphenyl)amino]-6,7-dimethoxycinnoline-3-carboxamide]
8	–	COc1cc2nnc(C(N)=O)c(Nc3ccc(C)cc3F)c2cc1N1CCN2C(=NNC2O)C1 (stereo not shown) [Example 32, 4-[(2-Fluoro-4-methylphenyl)amino]-6-(3-hydroxy-2,5,6,8-tetrahydro[1,2,4]triazolo[4,3-a]pyrazin-7(3H)-yl)-7-methoxycinnoline-3-carboxamide]
–	< 3	COCCOc1cc2nnc(C(N)=O)c(Nc3ccc(F)cc3F)c2cc1N1CCN(C)CC1 [Example 17, 4-[(2,4-Difluorophenyl)amino]-7-(2-methoxyethoxy)-6-(4-methylpiperazin-1-yl)cinnoline-3-carboxamide]
–	< 15	CCOc1cc2nnc(C(N)=O)c(Nc3cccc(Cl)c3F)c2cc1N1CCN(C)CC1 [Example 9, 4-[(3-Chloro-2-fluoro-phenyl)amino]-7-ethoxy-6-(4-methylpiperazin-1-yl)cinnoline-3-carboxamide]
–	< 3	COCCOc1cc2nnc(C(N)=O)c(Nc3ccc(C)cc3F)c2cc1N1CCN(C)CC1 [Example 18, 4-[(2-Fluoro-4-methylphenyl)amino]-7-(2-methoxyethoxy)-6-(4-methylpiperazin-1-yl)cinnoline-3-carboxamide]
–	< 3	COCCOc1cc2nnc(C(N)=O)c(Nc3cc(C)ccc3F)c2cc1N1CCN(C)CC1 [Example 19, 4-[(2-Fluoro-5-methylphenyl)amino]-7-(2-methoxyethoxy)-6-(4-methylpiperazin-1-yl)cinnoline-3-carboxamide]
–	9	COc1cc2nnc(C(N)=O)c(Nc3ccc(C)cc3F)c2cc1N1CCN(C(C)(C)C)CC1 [Example 16, 6-(4-tert-Butylpiperazin-1-yl)-4-[(2-fluoro-4-methylphenyl)amino]-7-methoxycinnoline-3-carboxamide]
